US11534457B2, “Use of dextran sulfate” (priority 2017, dated 2022)

Test system: severe traumatic brain injury (sTBI)
Assay: sTBI in rats, brain gene expression arrays and pathway analysis (Example 9)
Format: in vivo, Male Wistar rats
Design: key to z score, canonical pathway Dendritic Cell Maturation / z score, canonical pathway Adrenomedullin Signaling pathway / z score, canonical pathway Endothelin-1 Signaling / effect on canonical pathway Adrenomedullin Signaling pathway / effect on canonical pathway Endothelin-1 Signaling / effect on canonical pathway Dendritic Cell Maturation / Ingenuity canonical pathway Adrenomedullin signaling pathway, z score / Ingenuity canonical pathway FLT3 Signaling in Hematopoietic Progenitor Cells, z score / Ingenuity canonical pathway Opioid Signaling Pathway, z score / Ingenuity canonical pathway VDR/RXR Activation, z score / Ingenuity canonical pathway Neuropathic Pain Signaling In Dorsal Horn Neurons, z score / Ingenuity canonical pathway STAT3 Pathway, z score / Ingenuity canonical pathway IL-1 Signaling, z score / Ingenuity canonical pathway IL-6 Signaling, z score / Ingenuity canonical pathway NF-κB Signaling, z score / Ingenuity canonical pathway Role of NFAT in Cardiac Hypertrophy, z score / Ingenuity canonical pathway PPARα/RXRα Activation, z score: *: ambiguous effect
Protocol: The experimental protocol used in this study was approved by the Ethical Committee of the Catholic University of Rome, according to international standards and guidelines for animal care. Male Wistar rats of 300-350 g body weight were fed with standard laboratory diet and water ad libitum in a controlled environment. As the anesthetic mixture, the animals received 35 mg/kg b.w. ketamine and 0.25 mg/kg body weight midazolam by i.p. injection. Severe traumatic brain injury (sTBI) was induced by dropping a 450 g weight from 2 m height on to the rat head that had been protected by a metal disk previously fixed on the skull, according to the “weight drop” impact acceleration model (Marmarou et al., A new model of diffuse brain injury in rats. Part I: Pathophysiology and biomechanics. J Neurosurg. 1994; 80: 291-300). […] At the end of each period of treatment, rats were anesthetized again and then immediately sacrificed.
LMW-DS (Tikomed AB) was provided at a stock concentration of 20 mg/ml and was kept in a temperature-monitored refrigerator at 4° C. LMW-DS aliquots were diluted to the appropriate dosing concentration in sterile saline prior to delivery of a single subcutaneous injection.
Three doses of LMW-DS were administered subcutaneously 30 minutes post-TBI. The animals were sacrificed at 2 days post-TBI. The animals were divided into the following subgroups:
Three doses of LMW-DS were administered subcutaneously 30 minutes post-TBI. The animals were sacrificed at 7 days post-TBI. The animals were divided into the following subgroups:
An in vivo craniectomy was performed on all animals during anesthesia. After carefully removing the rat's skull, the brain was exposed and removed with a surgical spatula and quickly dropped in RNALater and preserved at 4° C. for further processing.
RNA extraction and array processing was carried out by SourceBioscience. The arrays used were the Agilent Rat expression arrays.
Statistical analysis was carried out using the Metaboanalyst software package. Gene expression changes of 10% with a p<0.05 were regarded as significant.
Pathway analysis of the differentially regulated genes was carried out using the Ingenuity pathway analysis package. The analysis was performed with special reference to pathways and molecular processes and diseases associated with neurodegenerative disease, including dementia, Alzheimer's disease, ALS, TBI and stroke, and with scarring and fibrosis, including glaucoma and normal pressure hydrocephalus (NPH) after subarachnoid haemorrhage.

[1] = 3 repeated doses of 15 mg/kg, 7 days
[2] = 2 days after TBI, TBI + 1 mg/kg LMW-DS
[3] = 2 days after TBI, TBI + 1 mg/kg LMW-DS, relative to control

low molecular weight dextran sulfate [LMW-DS]
genes with altered TBI-specific expression (1 mg/kg s.c. 30 min after injury, 2 days): 372 genes | genes with altered TBI-specific expression (1 mg/kg s.c. 30 min after injury, 7 days): 3602 genes | TBI-deregulated genes remaining deregulated relative to healthy controls (of 221) (1 mg/kg, 2 days): 22 genes | TBI-deregulated genes remaining deregulated, percent (1 mg/kg, 2 days): 10% | genes differing from healthy controls (1 mg/kg, 2 days): 209 genes | TBI-deregulated genes remaining deregulated relative to healthy controls (of 2741) (1 mg/kg, 7 days): 124 genes | TBI-deregulated genes remaining deregulated, percent (1 mg/kg, 7 days): 4.5% | genes differing from healthy controls (1 mg/kg, 7 days): 282 genes | genes with altered TBI-specific expression (5 mg/kg s.c. 30 min after TBI, 2 days): 702 genes | genes with altered TBI-specific expression (5 mg/kg s.c. 30 min after TBI, 7 days): 3852 genes | TBI-deregulated genes remaining deregulated relative to healthy controls (of 221) (5 mg/kg, 2 days): 51 genes | TBI-deregulated genes remaining deregulated, percent (5 mg/kg, 2 days): 23% | genes differing from healthy controls (5 mg/kg, 2 days): 258 genes | TBI-deregulated genes remaining deregulated relative to healthy controls (of 2741) (5 mg/kg, 7 days): 169 genes | TBI-deregulated genes remaining deregulated, percent (5 mg/kg, 7 days): 6.1% | genes differing from healthy controls (5 mg/kg, 7 days): 398 genes | genes with altered TBI-specific expression (15 mg/kg s.c. 30 min after TBI, 2 days): 247 genes | genes with altered TBI-specific expression (15 mg/kg s.c. 30 min after TBI, 7 days): 3901 genes | TBI-deregulated genes remaining deregulated relative to healthy controls (of 221) (15 mg/kg, 2 days): 19 genes | TBI-deregulated genes remaining deregulated, percent (15 mg/kg, 2 days): 8.5% | genes differing from healthy controls (15 mg/kg, 2 days): 47 genes | TBI-deregulated genes remaining deregulated relative to healthy controls (of 2741) (15 mg/kg, 7 days): 85 genes | TBI-deregulated genes remaining deregulated, percent (15 mg/kg, 7 days): 3.1% | genes differing from healthy controls (15 mg/kg, 7 days): 158 genes | TBI-deregulated genes remaining deregulated relative to healthy controls (of 2741) [1]: 116 genes | TBI-deregulated genes remaining deregulated, percent [1]: 4.25% | genes differing from healthy controls [1]: 234 genes | effect on canonical pathway Adrenomedullin Signaling pathway [2]: * | effect on canonical pathway Dendritic Cell Maturation [2]: * | effect on canonical pathway Endothelin-1 Signaling [2]: * | effect on canonical pathway IL-1 Signaling [2]: Inhibited | effect on canonical pathway Osteoarthritis Pathway [2]: Inhibited | effect on canonical pathway Role of NFAT in Regulation of the Immune Response [2]: Activated | z score, Abdominal cancer [2]: −1.538 | z score, Abdominal carcinoma [2]: −1.715 | z score, Abdominal neoplasm [2]: −0.154 | z score, Activation of blood cells [2]: 0.086 | z score, Activation of cells [2]: 0.836 | z score, Activation of leukocytes [2]: 0.086 | z score, Activation of lymphocytes [2]: −1.158 | z score, Adhesion of tumor cell lines [2]: 2.074 | z score, Apoptosis [2]: −0.337 | z score, Apoptosis of muscle cells [2]: 0.041 | z score, Behavior [2]: 1.334 | z score, Binding of tumor cell lines [2]: 2.397 | z score, Carcinoma [2]: −0.127 | z score, Cell death [2]: −0.793 | z score, Cell death of blood cells [2]: 1.082 | z score, Cell death of immune cells [2]: 1.001 | z score, Cell movement [2]: 1.948 | z score, Cell movement of muscle cells [2]: −0.26 | z score, Cell movement of vascular smooth muscle cells [2]: −0.588 | z score, Cell proliferation of T lymphocytes [2]: −1.097 | z score, Cellular homeostasis [2]: 0.19 | z score, Concentration of prostaglandin [2]: −0.911 | z score, Development of connective tissue cells [2]: −0.332 | z score, Differentiation of bone cells [2]: −0.341 | z score, Differentiation of connective tissue cells [2]: 0.73 | z score, Differentiation of hematopoietic progenitor cells [2]: 0.487 | z score, Differentiation of osteoclasts [2]: −0.223 | z score, Digestive organ tumor [2]: −0.604 | z score, Experimentally-induced arthritis [2]: −0.816 | z score, Extracranial solid tumor [2]: 0.056 | z score, Genital tumor [2]: 0.13 | z score, Incidence of tumor [2]: −1.131 | z score, Inflammation of absolute anatomical region [2]: −1.359 | z score, Inflammation of body cavity [2]: −1.757 | z score, Inflammation of joint [2]: −0.053 | z score, Inflammation of organ [2]: −1.295 | z score, Inflammatory response [2]: 1.159 | z score, Interaction of mononuclear leukocytes [2]: 1.626 | z score, Leukocyte migration [2]: 1.296 | z score, Leukopoiesis [2]: 1.185 | z score, Locomotion [2]: −0.039 | z score, Lymphopoiesis [2]: 0.583 | z score, Malignant solid tumor [2]: −0.562 | z score, Migration of cells [2]: 2.093 | z score, Necrosis [2]: −0.361 | z score, Non-hematologic malignant neoplasm [2]: −0.243 | z score, Pelvic tumor [2]: −0.651 | z score, Proliferation of blood cells [2]: −1.083 | z score, Proliferation of lymphatic system cells [2]: −1.112 | z score, Proliferation of lymphocytes [2]: −0.852 | z score, Quantity of blood cells [2]: −1.479 | z score, Quantity of bone [2]: −1.985 | z score, Quantity of cells [2]: −0.765 | z score, Quantity of connective tissue cells [2]: 0.637 | z score, Quantity of leukocytes [2]: −1.163 | z score, Quantity of lymphatic system cells [2]: −0.701 | z score, Quantity of phagocytes [2]: −2.061 | z score, Rheumatic Disease [2]: −0.053 | z score, Size of body [2]: −4.771 | z score, Solid tumor [2]: −0.186 | z score, Survival of organism [2]: −0.095 | z score, Synthesis of hormone [2]: 0.977 | z score, Thrombus [2]: 1 | z score, Transcription of RNA [2]: −2.488 | z score, Transport of molecule [2]: 2.421 | z score, canonical pathway Adrenomedullin Signaling pathway [3]: * | z score, canonical pathway Dendritic Cell Maturation [3]: * | z score, canonical pathway Endothelin-1 Signaling [3]: * | z score, canonical pathway IL-1 Signaling [3]: −1 | z score, canonical pathway Osteoarthritis Pathway [3]: −1.342 | z score, canonical pathway Role of NFAT in Regulation of the Immune Response [3]: 0.378
